Laboratory results as given in patent US6410575B1, “Viral treatment” (The Procter & Gamble Company, priority 1999, dated 2002).
Several values for one entry are separate records, joined by “and”; a condition that tells them apart may be missing. Identical values can stand only once.

Key:
[1] = tested on: Human Herpes Virus 8 (HHV8); assay: Kaposi's sarcoma / HHV8 DNA copy number in TPA-induced BCBL-1 cells; type: cell-based
Procedure: The DNA copy number and the toxicity value were measured and compared with Cidofovir. Kaposi's sarcoma (KS) is a cancer that is often found in people with weak immune systems, such as those taking immunosuppressants or those with AIDS. The exact nature of the disease is uncertain, but it is almost always found in association with HHV8.

[2] = tested on: U937RF, a protease resistant strain; assay: Long term in vitro study, U937RF; type: cell-based, HIV
Procedure: (§1) Toxicity quantification involves the XTT-based evaluation. Assays were designed to characterize the long term effects of the compounds on virus production and to characterize the longer term effects of the compounds on virus production from chronically HIV infected cells.
(§2) CEM-SS cells chronically infected with HIV isolate, for example SKI (CEM-SKI) are cultured in RPMI1640 tissue culture medium supplemented with 10% fetal bovine serum and antibiotics. […] CEM-SKI or other infected cells with no added drug are used as the control cells.
(§3) Cells are allowed to grow to a density of approximately 1×10^6 cells/ml and are then passaged at a 1:10 dilution. […] The drug concentration in the flask is then increased two-fold and the cells maintained as above.
(§4) The cell populations contain integrated copies of the HIV genome and constitutively produce HIV at relatively high levels or are latently infected and only produce virus after stimulation with phorbol esters, tumor necrosis factor or IL6(U1 and ACH2). Reductions in virus products were observed when quantifying supernatant reverse transcriptase activity.
The results with U937RF cells were reported at weekly intervals.

HIV-1 cell line, CEMRF = assay: Long term in vitro study, CEMRF; type: cell-based; details: 7 μg/ml
Procedure: as §1, §2, §3, §4
The results with CEMRF cells was reported at weekly intervals.
The CEMRF is a viral strain of the CEMSS cell line.

CEMROD = assay: Toxicity values in the HIV-2 screening test; type: cell-based; design: Toxicity Values, sample / Toxicity Values, average: unit not given here
Description: as §1

HIV-1 protease = biological target: T1, HIV-1 protease (Human immunodeficiency virus type 1 group M subtype B, UniProt P04585); assay: Protease inhibition assay (fluorometric); type: biochemical
T1 construct: use of the fluorometric, HIV-1 protease assay; purchased Bachem
Procedure: Protease inhibition is evaluated using a fluorometric method. Enzyme (Bachem) is diluted to 116 μgm/ml in 50 mM NaOAC, 5 mM DTT, 2 mM EDTA, 10% glycerol (pH 5.0) and stored as 10 μl samples at −20° C. HIV protease substrates 1 (Molecular Probes) are diluted to a working concentration of 0.32 nmoles/μl. Enzyme (20 μl) and drug (20 μl) are added to each well of a microtiter plate as appropriate. Positive and negative controls are evaluated in parallel. Fluorescene is quantitated on Labsystems Fluroskan II using 355 nm/460 nm at 37° C. at time zero and at 30 minute intervals for 2 hours. In instances where auto-fluorescence precludes use of the fluorometric, HIV-1 protease assay or confirmation of a result is required, an HPLC based protease assay can be employed.
The mechanism of action of the (5-aryl-1,2,4-thiadiazol)-3-yl thiourea derivatives or (5-aryl-1,2,4-thiadizol)-3-yl urea derivatives is not known.

NC(=S)Nc1nsc(-c2ccccc2)n1
% virus control ([1]; 0.64 μM): 79.1% | DNA Copy Number (per 3 μl), average ([1]; 0.64 μM): 12198.1 per 3 μl | DNA Copy Number (per 3 μl), sample ([1]; 0.64 μM): 1200.5 per 3 μl and 1258.4 per 3 μl and 1198.4 per 3 μl | % virus control ([1]; 2 μM): 71.2% | DNA Copy Number (per 3 μl), average ([1]; 2 μM): 1096.9 per 3 μl | DNA Copy Number (per 3 μl), sample ([1]; 2 μM): 1100.2 per 3 μl and 1000.7 per 3 μl and 1189.7 per 3 μl | % virus control ([1]; 6.4 μM): 67.0% | DNA Copy Number (per 3 μl), average ([1]; 6.4 μM): 1032.6 per 3 μl | DNA Copy Number (per 3 μl), sample ([1]; 6.4 μM): 1003.5 per 3 μl and 1084.5 per 3 μl and 1009.7 per 3 μl | % virus control ([1]; 20 μM): 55.8% | DNA Copy Number (per 3 μl), average ([1]; 20 μM): 860.2 per 3 μl | DNA Copy Number (per 3 μl), sample ([1]; 20 μM): 747.8 per 3 μl and 841.6 per 3 μl and 991.2 per 3 μl | % virus control ([1]; 64 μM): 48.9% | DNA Copy Number (per 3 μl), average ([1]; 64 μM): 753.0 per 3 μl | % virus control ([1]; 200 μM): 26.6% | DNA Copy Number (per 3 μl), average ([1]; 200 μM): 410.7 per 3 μl | TI ([1]; HHV8, BCBL-1 cells): TI = 1.8 | IC50 ([1]; Human gammaherpesvirus 8, BCBL1, HHV8 DNA copy number, BCBL-1 cells): 56.8 µM | virus production (supernatant reverse transcriptase activity) ([2]; 7 μg/ml, day 4): 1627 | virus production (supernatant reverse transcriptase activity) ([2]; 7 μg/ml, day 11): 1526 | virus production (supernatant reverse transcriptase activity) ([2]; 7 μg/ml, day 18): 4086 | virus production (supernatant reverse transcriptase activity) ([2]; 7 μg/ml, day 25): 5303 | virus production (supernatant reverse transcriptase activity) ([2]; 7 μg/ml, day 32): 4827 | virus production (supernatant reverse transcriptase activity) ([2]; 7 μg/ml, day 39): 6008 | virus production (supernatant reverse transcriptase activity) ([2]; 7 μg/ml, day 46): 3586 | virus production (supernatant reverse transcriptase activity) ([2]; 7 μg/ml, day 53): 5726 | virus production (supernatant reverse transcriptase activity) ([2]; 15 μg/ml, day 4): 1575 | virus production (supernatant reverse transcriptase activity) ([2]; 15 μg/ml, day 11): 1482 | virus production (supernatant reverse transcriptase activity) ([2]; 15 μg/ml, day 18): 3772 | virus production (supernatant reverse transcriptase activity) ([2]; 15 μg/ml, day 25): 2654 | virus production (supernatant reverse transcriptase activity) ([2]; 15 μg/ml, day 32): 1594 | virus production (supernatant reverse transcriptase activity) ([2]; 15 μg/ml, day 39): 3538 | virus production (supernatant reverse transcriptase activity) ([2]; 15 μg/ml, day 46): 2426 | virus production (supernatant reverse transcriptase activity) ([2]; 15 μg/ml, day 53): 3976 | virus production (supernatant reverse transcriptase activity) ([2]; 30 μg/ml, day 4): 1751 | virus production (supernatant reverse transcriptase activity) ([2]; 30 μg/ml, day 11): 1237 | virus production (supernatant reverse transcriptase activity) ([2]; 30 μg/ml, day 18): 2892 | virus production (supernatant reverse transcriptase activity) ([2]; 30 μg/ml, day 25): 735 | virus production (supernatant reverse transcriptase activity) ([2]; 30 μg/ml, day 32): 1035 | virus production (supernatant reverse transcriptase activity) ([2]; 30 μg/ml, day 39): 1265 | virus production (supernatant reverse transcriptase activity) ([2]; 30 μg/ml, day 46): 1358 | virus production (supernatant reverse transcriptase activity) ([2]; 30 μg/ml, day 53): 2333 | virus production (supernatant reverse transcriptase activity) (HIV-1 cell line, CEMRF; day 4): 5423 | virus production (supernatant reverse transcriptase activity) (HIV-1 cell line, CEMRF; day 11): 2249 | virus production (supernatant reverse transcriptase activity) (HIV-1 cell line, CEMRF; day 18): 2951 | virus production (supernatant reverse transcriptase activity) (HIV-1 cell line, CEMRF; day 25): 3606 | % cell control (CEMROD; 0.32 μg/ml): 101.6% | Toxicity Values, average (CEMROD; 0.32 μg/ml): 1.197 | Toxicity Values, sample (CEMROD; 0.32 μg/ml): 1.181 and 1.206 and 1.203 | % cell control (CEMROD; 1 μg/ml): 90.9% | Toxicity Values, average (CEMROD; 1 μg/ml): 1.071 | Toxicity Values, sample (CEMROD; 1 μg/ml): 1.055 and 1.093 and 1.066 | % cell control (CEMROD; 1.0 μg/ml): 75.6% | Toxicity Values, average (CEMROD; 1.0 μg/ml): 0.891 | Toxicity Values, sample (CEMROD; 1.0 μg/ml): 0.871 and 0.881 and 0.921 | % cell control (CEMROD; 3.2 μg/ml): 83.1% | Toxicity Values, average (CEMROD; 3.2 μg/ml): 0.979 | Toxicity Values, sample (CEMROD; 3.2 μg/ml): 0.987 and 0.984 and 0.965 | % cell control (CEMROD; 32 μg/ml): 43.2% | Toxicity Values, average (CEMROD; 32 μg/ml): 0.509 | Toxicity Values, sample (CEMROD; 32 μg/ml): 0.518 and 0.491 and 0.517 | % cell control (CEMROD; 100 μg/ml): 9.8% | Toxicity Values, average (CEMROD; 100 μg/ml): 0.115 | Toxicity Values, sample (CEMROD; 100 μg/ml): 0.113 and 0.117 and 0.115 | EC50 (HIV-1 protease): > 423 µM | activity as a protease inhibitor (HIV-1 protease): did not show activity | remaining activity at 0.001 µM (HIV-1 protease; 1 nM, read-out: Protease inhibition, % no drug control): 100% | remaining activity at 0.01 µM (HIV-1 protease; 10 nM, read-out: Protease inhibition, % no drug control): 103% | remaining activity at 0.1 µM (HIV-1 protease; 100 nM, read-out: Protease inhibition, % no drug control): 99.9% | remaining activity at 1 µM (HIV-1 protease; read-out: Protease inhibition, % no drug control): 88%
